From patent US20080096907A1, “Aryl, Pyrimidyl Compounds, Pharmaceutical Compositions Comprising them, Their Use as Antimicrobial Agents” (INSTITUT PASTEUR, priority 2004, published 2008)
In brackets after ≈: the same amount, converted by molar mass.

B1: TMPKh (human TMPK) (Homo sapiens) (protein)
chain: MAARRGALIVLEGVDRAGKSTQSRKLVEALCAAGHRAELLRFPERSTEIGKLLSSYLQKKSDVEDHSVHLLFSANRWEQVPLIKEKLSQGVTLVVDRYAFSGVAFTGAKENFSLDWCKQPDVGLPKPDLVLFLQLQLADAAKRGAFGHERYENGAFQERALRCFHQLMKDTTLNWKMVDASKSIEAVHEDIRVLSEDAIRTATEKPLGELWK

Each molecule was assayed on Cc1cn([C@H]2C[C@H](O)[C@@H](COP(=O)(O)O)O2)c(=O)[nH]c1=O (assay: purified protein, by the assay type). Details: other: substrate Km; pH 7.4; 30.0 °C.

B1 gave a Km of 5 µM.

These molecules were tested against TMPKmt (M. tuberculosis TMPK) (Mycobacterium tuberculosis, UniProt P9WKE1) (assay: biochemical). Details: not given.
Sequence of TMPKmt (M. tuberculosis TMPK) (P9WKE1 whole entry, looked up): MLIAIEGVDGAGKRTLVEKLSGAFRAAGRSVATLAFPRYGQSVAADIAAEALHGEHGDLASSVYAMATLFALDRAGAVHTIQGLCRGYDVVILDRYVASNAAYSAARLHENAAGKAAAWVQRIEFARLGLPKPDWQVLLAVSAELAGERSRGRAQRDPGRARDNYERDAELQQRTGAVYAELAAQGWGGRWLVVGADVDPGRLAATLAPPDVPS
Assay type: biochemical

Point of comparison: `NC(=O)CCCCCc1ccc(Cn2cc(Cl)c(=O)[nH]c2=O)cc1` [Compound 62, 6-[4-(5-Chloro-2,4-dioxo-3,4-dihydro-2H-pyrimidin-1-yl-methyl)-phenyl]-hexanoic acid amide], Ki 32 µM. Against it:
- Cc1cn(Cc2ccc(CC(F)CC(=O)O)cc2)c(=O)[nH]c1=O (stereo not drawn) [Compound 65, 3-Fluoro-4-[4-(5-Methyl-2,4-dioxo-3,4-dihydro-2H-pyrimidin-1-yl-methyl)-phenyl]-butyric acid] — 2-fold higher, 63 µM
- Cc1cn(Cc2ccc(CC(F)CC=O)cc2)c(=O)[nH]c1=O (stereo not drawn) [Compound 64, 3-Fluoro-4-[4-(5-methyl-2,4-dioxo-3,4-dihydro-2H-pyrimidin-1-yl-methyl)-phenyl]-butyraldehyde] — within 1.5-fold, 26 µM
- O=C(O)CCCCCc1ccc(Cn2cc(Cl)c(=O)[nH]c2=O)cc1 [Compound 59, 6-[4-(5-Chloro-2,4-dioxo-3,4-dihydro-2H-pyrimidin-1-yl-methyl)-phenyl]-hexanoic acid] — 1.5-fold higher, 49 µM

Same assay, conditions: pH 7.4; read-out: Ki

Point of comparison: `Cc1cn(Cc2ccc(CCCCO)cc2)c(=O)[nH]c1=O` [Compound 31, 1-[4-(4-Elydroxy-butyl)-benzyl]-5-methyl-1H-pyrimidine-2,4-dione], Ki 63 µM. Against it:
- Cc1cn(Cc2ccc(CCCCCC(N)=O)cc2)c(=O)[nH]c1=O [Compound 54, 6-[4-(5-Methyl-2,4-dioxo-3,4-dihydro-2H-pyrimidin-1-yl-methyl)-phenyl]-hexanoic acid amide] — 1.9-fold lower, 33 µM
- O=C(O)CCCc1ccc(Cn2cc(Cl)c(=O)[nH]c2=O)cc1 [Compound 39] — 4.2-fold lower, 15 µM
- COC(=O)CCCc1ccc(Cn2cc(C)c(=O)[nH]c2=O)cc1 [Compound 40a] — within 1.5-fold, 70 µM
- NC(=O)CCCCCc1ccc(Cn2cc(Br)c(=O)[nH]c2=O)cc1 [Compound 61, 6-[4-(5-Bromo-2,4-dioxo-3,4-dihydro-2H-pyrimidin-1-yl-methyl)-phenyl]-hexanoic acid amide] — 2.6-fold lower, 24 µM
- Cc1cn(Cc2ccc(C#CCCO)cc2)c(=O)[nH]c1=O [Compound 30, 1-[4-(4-Hydroxy-but-1-ynyl)-benzyl]-5-methyl-1H-pyrimidine-2,4-dione] — within 1.5-fold, 86 µM
- Cc1cn(Cc2ccc(CSCC(=O)O)cc2)c(=O)[nH]c1=O [Compound 63, 3-[4-(5-Methyl-2,4-dioxo-3,4-dihydro-2H-pyrimidin-1-ylmethyl)-benzylsulfanyl]-acetic acid] — 4.2-fold lower, 15 µM
- O=C(O)CCCCc1ccc(Cn2cc(Br)c(=O)[nH]c2=O)cc1 [Compound 48, 5-[4-(5-Bromo-2,4-dioxo-3,4-dihydro-2H-pyrimidin-1-yl-methyl)-phenyl]-pentanoic acid] — within 1.5-fold, 47 µM
- Cc1cn(Cc2ccc(CCCC(N)=O)cc2)c(=O)[nH]c1=O [Compound 40b] — 2.2-fold higher, 139 µM
- Cc1cn(Cc2ccc(CCCCC(=O)O)cc2)c(=O)[nH]c1=O [Compound 45, 5-[4-(5-Methyl-2,4-dioxo-3,4-dihydro-2H-pyrimidin-1-yl-methyl)-phenyl]-pentanoic acid] — within 1.5-fold, 72 µM
- O=C(O)CCCCCc1ccc(Cn2cc(Br)c(=O)[nH]c2=O)cc1 [Compound 58, 6-[4-(5-Bromo-2,4-dioxo-3,4-dihydro-2H-pyrimidin-1-yl-methyl)-phenyl]-hexanoic acid] — 1.5-fold lower, 42 µM
- Cc1cn(Cc2ccc(C#CCCCC(N)=O)cc2)c(=O)[nH]c1=O [Compound 53, 6-[4-(5-Methyl-2,4-dioxo-3,4-dihydro-2H-pyrimidin-1-yl-methyl)-phenyl]-hexyn-5-oic acid amide] — 1.8-fold higher, 113 µM
- Cc1cn(Cc2ccc(C#CCCCC(=O)O)cc2)c(=O)[nH]c1=O [Compound 51, 6-[4-(5-Methyl-2,4-dioxo-3,4-dihydro-2H-pyrimidin-1-yl-methyl)-phenyl]-hexyn-5-oic acid] — 1.9-fold higher, 119 µM

Same assay, conditions: pH 7.4; read-out: TMPKmt W1002 Ki

Point of comparison: `Cc1cn(Cc2ccccc2)c(=O)[nH]c1=O` [Compound 3, 5-Methyl-1-Benzyl-1H-pyrimidine-2,4-dione], Ki 75 µM. Against it:
- N#Cc1cn(Cc2ccccc2)c(=O)[nH]c1=O [Compound 12] — 13-fold higher, 980 µM
- CCOC(=O)CCc1ccc(Cn2cc(C)c(=O)[nH]c2=O)cc1 [Compound 19, 3-[4-(5-Methyl-2,4-dioxo-3,4-dihydro-2H-pyrimidin-1-ylmethyl)-phenyl]-propionic acid ethyl ester] — 3.5-fold higher, 265 µM
- Cc1cn(Cc2ccc(C=CC(N)=O)cc2)c(=O)[nH]c1=O [Compound 14, 3-[4-(5-Methyl-2,4-dioxo-3,4-dihydro-2H-pyrimidin-1-ylmethyl)-phenyl]-acrylamide] — 3.2-fold higher, 240 µM
- N#Cc1cn(Cc2cccc(Cl)c2)c(=O)[nH]c1=O [Compound 13] — 11-fold higher, 810 µM
- Cc1cn(Cc2ccc(F)cc2)c(=O)[nH]c1=O [Compound 6, 5-Methyl-1-(4-fluoro-benzyl)-1H-pyrimidine-2,4-dione] — 1.7-fold lower, 45 µM
- O=c1[nH]c(=O)n(Cc2ccccc2)cc1Br [Compound 4, 5-Bromo-1-benzyl-1H-pyrimidine-2,4-dione] — 1.7-fold lower, 44 µM
- Cc1cn(Cc2ccc(Cl)cc2)c(=O)[nH]c1=O [Compound 9, 5-Methyl-1-(4-chloro-benzyl)-1H-pyrimidine-2,4-dione] — 1.5-fold lower, 50 µM
- Cc1cn(Cc2cccc(F)c2)c(=O)[nH]c1=O [Compound 7, 5-Methyl-1-(3-fluoro-benzyl)-1H-pyrimidine-2,4-dione] — within 1.5-fold, 90 µM
- Cc1cn(Cc2ccc(CCC(N)=O)cc2)c(=O)[nH]c1=O [Compound 1, 3-[4-(5-Methyl-2,4-dioxo-3,4-dihydro-2H-pyrimidin-1-ylmethyl)-phenyl]-propionamide] — within 1.5-fold, 110 µM
- Cc1cn(Cc2ccc(CCC(=O)O)cc2)c(=O)[nH]c1=O [Compound 2, 3-[4-(5-Methyl-2,4-dioxo-3,4-dihydro-2H-pyrimidin-1-ylmethyl)-phenyl]-propionic acid] — within 1.5-fold, 68 µM
- Cc1cn(Cc2cccc(Cl)c2)c(=O)[nH]c1=O [Compound 10, 5-Methyl-1-(3-chloro-benzyl)-1H-pyrimidine-2,4-dione] — 1.7-fold lower, 44 µM
- Cc1cn(Cc2ccc(CCCCCC(=O)O)cc2)c(=O)[nH]c1=O [Compound 22, 6-[4-(5-Methyl-2,4-dioxo-3,4-dihydro-2H-pyrimidin-1-yl-methyl)-phenyl]-hexanoic acid] — 2.3-fold lower, 32 µM
- Cc1cn(Cc2ccc(F)c(F)c2)c(=O)[nH]c1=O [Compound 8, 5-Methyl-1-(3,4-difluoro-benzyl)-1H-pyrimidine-2,4-dione] — within 1.5-fold, 67 µM
- Cc1cn(Cc2ccc(Br)cc2)c(=O)[nH]c1=O [Compound 11, 5-Methyl-1-(4-bromo-benzyl)-1H-pyrimidine-2,4-dione] — 2-fold lower, 38 µM
- Cc1cn(Cc2ccc(CCCC(=O)O)cc2)c(=O)[nH]c1=O [Compound 20, 4-[4-(5-Methyl-2,4-dioxo-3,4-dihydro-2H-pyrimidin-1-yl-methyl)-phenyl]-butyric acid] — 4.5-fold lower, 16.5 µM

Each molecule was assayed on VERO cells (assay: cytotoxicity on VERO cells). Details: not given.
Assay type: cell-based
Experimental: Cytotoxicity: The molecule 22 has been tested for its cytotoxicity on VERO cells. It has been determined that no growth inhibition, and consequently no cytotoxic activity, could be detected up to a concentration of 250 μg/ml of compound 22.

`Cc1cn(Cc2ccc(CCCCCC(=O)O)cc2)c(=O)[nH]c1=O` [Compound 22, 6-[4-(5-Methyl-2,4-dioxo-3,4-dihydro-2H-pyrimidin-1-yl-methyl)-phenyl]-hexanoic acid] was tested, and the “concentration up to which no growth inhibition / no cytotoxic activity could be detected” value was > 250 µg/mL.

System: Cc1cn([C@H]2C[C@H](O)[C@@H](COP(=O)(O)O)O2)c(=O)[nH]c1=O
Test: purified protein, by the assay type
Details: other: substrate Km; pH 7.4; 30.0 °C
Remark: another data set of the same source

Work on “TMPKmt (M. tuberculosis TMPK) (Mycobacterium tuberculosis H37Rv)” yielded a Km of 4.5 µM.

These molecules were tested on Mycobacterium tuberculosis H37Ra (assay: IC50 on cultures of Mycobacterium tuberculosis H37Ra). Details: not given.
Assay type: cell-based
Source text: The IC50 value for three compounds has been measured on cultures of Mycobacterium tuberculosis H37Ra.

Point of comparison: `Cc1cn(Cc2ccc(CCCC(=O)O)cc2)c(=O)[nH]c1=O` [Compound 20, 4-[4-(5-Methyl-2,4-dioxo-3,4-dihydro-2H-pyrimidin-1-yl-methyl)-phenyl]-butyric acid], IC50 100 µg/mL (≈ 331 µM). Against it:
- O=C(O)CCCc1ccc(Cn2cc(Br)c(=O)[nH]c2=O)cc1 [Compound 21, 4-[5-Bromo-(2,4-dioxo-3,4-dihydro-2H-pyrimidin-1-ylmethyl)-phenyl]butyric acid] — 2-fold lower, 50 µg/mL (≈ 136 µM)
- Cc1cn(Cc2ccc(CCCCCC(=O)O)cc2)c(=O)[nH]c1=O [Compound 22, 6-[4-(5-Methyl-2,4-dioxo-3,4-dihydro-2H-pyrimidin-1-yl-methyl)-phenyl]-hexanoic acid] — 4-fold lower, 25 µg/mL (≈ 75.7 µM)
